Results on 32 compounds are retold here after US9988400B2 (Genentech, Inc., priority 2013, dated 2018).

The target in the assay is T1, HEK cells stably transfected with tetracycline inducible hNR1 and hNR2A (Homo sapiens, UniProt Q05586+Q12879).
T1 construct: expressed in transfected cells; host or cells: HEK cells, stably transfected, tetracycline/doxycycline inducible
T1 sequence (Q12879 23-1464, other chains not shown): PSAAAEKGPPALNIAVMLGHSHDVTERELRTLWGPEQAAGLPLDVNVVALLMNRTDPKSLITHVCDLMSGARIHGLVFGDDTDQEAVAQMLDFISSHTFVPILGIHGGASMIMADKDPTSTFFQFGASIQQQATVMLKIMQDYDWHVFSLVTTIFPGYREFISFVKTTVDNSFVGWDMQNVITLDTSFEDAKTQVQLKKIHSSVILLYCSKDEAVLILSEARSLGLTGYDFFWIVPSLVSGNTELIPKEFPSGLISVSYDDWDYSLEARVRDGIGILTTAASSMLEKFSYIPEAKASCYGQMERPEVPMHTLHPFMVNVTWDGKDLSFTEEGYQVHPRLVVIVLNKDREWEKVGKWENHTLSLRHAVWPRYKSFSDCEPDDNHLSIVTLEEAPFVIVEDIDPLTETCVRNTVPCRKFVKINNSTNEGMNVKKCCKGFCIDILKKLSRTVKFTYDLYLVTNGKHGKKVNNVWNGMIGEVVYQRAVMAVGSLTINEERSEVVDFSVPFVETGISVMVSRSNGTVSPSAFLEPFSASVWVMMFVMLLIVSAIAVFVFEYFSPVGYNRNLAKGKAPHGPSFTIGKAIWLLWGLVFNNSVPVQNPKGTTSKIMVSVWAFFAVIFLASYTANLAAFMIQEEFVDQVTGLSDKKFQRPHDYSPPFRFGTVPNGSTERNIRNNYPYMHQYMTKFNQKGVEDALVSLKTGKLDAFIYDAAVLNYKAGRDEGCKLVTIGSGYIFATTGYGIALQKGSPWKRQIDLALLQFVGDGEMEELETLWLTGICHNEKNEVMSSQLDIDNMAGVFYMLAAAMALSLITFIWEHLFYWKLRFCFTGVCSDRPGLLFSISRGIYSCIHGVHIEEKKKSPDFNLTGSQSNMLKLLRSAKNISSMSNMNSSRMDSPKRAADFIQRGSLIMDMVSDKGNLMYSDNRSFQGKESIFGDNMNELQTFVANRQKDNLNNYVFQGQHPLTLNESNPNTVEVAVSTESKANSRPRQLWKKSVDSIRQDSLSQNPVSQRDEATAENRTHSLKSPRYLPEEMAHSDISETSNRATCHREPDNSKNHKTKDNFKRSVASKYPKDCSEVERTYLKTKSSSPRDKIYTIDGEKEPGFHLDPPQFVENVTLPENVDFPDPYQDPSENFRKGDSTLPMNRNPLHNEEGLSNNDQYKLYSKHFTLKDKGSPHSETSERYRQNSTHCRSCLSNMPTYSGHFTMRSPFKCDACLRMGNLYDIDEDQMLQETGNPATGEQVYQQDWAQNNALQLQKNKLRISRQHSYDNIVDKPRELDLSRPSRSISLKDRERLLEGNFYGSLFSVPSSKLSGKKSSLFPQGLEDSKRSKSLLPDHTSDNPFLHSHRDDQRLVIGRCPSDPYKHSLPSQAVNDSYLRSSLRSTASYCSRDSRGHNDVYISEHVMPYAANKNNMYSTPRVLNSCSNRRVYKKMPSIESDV
In words: Assay 1: Cell-Based Assay, cytosolic calcium response to positive allosteric modulators (with 30 μM glycine and 300 nM L-glutamate, EC30). The note with it: Table 3; cytosolic calcium response, with 30 μM glycine and 300 nM L-glutamate (EC30); — = no plateau was reached. The procedure, abridged: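 Cells induced 24 h with 7.5 μg mL^−1 doxycycline plus 500 μM (+)-ketamine, loaded 60 min at 37 °C with calcium dye in Mg-free HBSS (1.8 mM Ca, probenecid, 10 μM (+)-ketamine, pH 7.15). Peak RFU over 5 min after compound addition, scaled to 100 μM L-glutamate (100%) and 0 μM (0%); four-parameter Hill fit for EC50, max % if no plateau.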
Usually EC50 stands for the concentration at which the effect is half-maximal. Turning to `Cc1sc2nc(Cn3nc(C4CC4)cc3C(F)(F)F)cc(=O)n2c1C(=O)NCC(F)(F)F` [compound 58, 7-[[3-cyclopropyl-5-(trifluoromethyl)pyrazol-1-yl]methyl]-2-methyl-5-oxo-N-(2,2,2-trifluoroethyl)thiazolo[3,2-a]pyrimidine-3-carboxamide], the EC50 amounted to 6.53 µM. Next, `CNC(=O)c1c(C)sc2nc(Oc3cccc(C(F)(F)F)c3F)cc(=O)n12` [compound 59, 7-[2-fluoro-3-(trifluoromethyl)phenoxy]-N,2-dimethyl-5-oxo-thiazolo[3,2-a]pyrimidine-3-carboxamide]: 8.22 µM; `CCNC(=O)c1c(Cl)sc2nc(Cc3cccc(C(F)(F)F)c3F)cc(=O)n12` [compound 60, 2-chloro-N-ethyl-7-[[2-fluoro-3-(trifluoromethyl)phenyl]methyl]-5-oxo-thiazolo[3,2-a]pyrimidine-3-carboxamide]: 3.22 µM.

For the compound `CNC(=O)c1c(C(F)(F)F)sc2nc(Cn3nc(C(F)(F)F)cc3C)cc(=O)n12` [compound 61, N-methyl-7-[[5-methyl-3-(trifluoromethyl)pyrazol-1-yl]methyl]-5-oxo-2-(trifluoromethyl)thiazolo[3,2-a]pyrimidine-3-carboxamide], the EC50 turned out to be 8.06 µM. Next, `CNC(=O)c1c(C(F)(F)F)sc2nc(Cn3nc(C)cc3C(F)(F)F)cc(=O)n12` [compound 62, N-methyl-7-[[3-methyl-5-(trifluoromethyl)pyrazol-1-yl]methyl]-5-oxo-2-(trifluoromethyl)thiazolo[3,2-a]pyrimidine-3-carboxamide]: 24.6 µM; `CNC(=O)c1c(C(F)(F)F)sc2nc(Cc3cccc(C(F)(F)F)c3F)cc(=O)n12` [compound 63, 7-[[2-fluoro-3-(trifluoromethyl)phenyl]methyl]-N-methyl-5-oxo-2-(trifluoromethyl)thiazolo[3,2-a]pyrimidine-3-carboxamide]: 3.71 µM. Next, `CNC(=O)c1c(C(F)(F)F)sc2nc(Cc3cccc(Cl)c3F)cc(=O)n12` [compound 64, 7-[(3-chloro-2-fluoro-phenyl)methyl]-N-methyl-5-oxo-2-(trifluoromethyl)thiazolo[3,2-a]pyrimidine-3-carboxamide]: 12.1 µM; `Cc1sc2nc(Cn3nc(C(F)(F)F)cc3Cl)cc(=O)n2c1C(=O)NCC(F)(F)F` [compound 65, 7-[[5-chloro-3-(trifluoromethyl)pyrazol-1-yl]methyl]-2-methyl-5-oxo-N-(2,2,2-trifluoroethyl)thiazolo[3,2-a]pyrimidine-3-carboxamide]: 0.551 µM. Next, `Cc1sc2nc(Cn3nc(Cl)cc3C(F)(F)F)cc(=O)n2c1C(=O)NCC(F)(F)F` [compound 66, 7-[[3-chloro-5-(trifluoromethyl)pyrazol-1-yl]methyl]-2-methyl-5-oxo-N-(2,2,2-trifluoroethyl)thiazolo[3,2-a]pyrimidine-3-carboxamide]: 1.69 µM.

Consider `Cc1cc(C(F)(F)F)n(Cc2cc(=O)n3c(C(=O)NCC(F)(F)F)c(C)sc3n2)n1` [compound 67, 2-methyl-7-[[3-methyl-5-(trifluoromethyl)pyrazol-1-yl]methyl]-5-oxo-N-(2,2,2-trifluoroethyl)thiazolo[3,2-a]pyrimidine-3-carboxamide], for which the EC50 came out at 36.6 µM. As to `CCNC(=O)c1c(C)sc2nc(Oc3cccc(C#N)c3F)cc(=O)n12` [compound 68, 7-(3-cyano-2-fluoro-phenoxy)-N-ethyl-2-methyl-5-oxo-thiazolo[3,2-a]pyrimidine-3-carboxamide], the EC50 turned out to be 30.4 µM. Next, `CCNC(=O)c1c(Cl)sc2nc(Cc3cccc(C#N)c3F)cc(=O)n12` [compound 69, 2-chloro-7-[(3-cyano-2-fluoro-phenyl)methyl]-N-ethyl-5-oxo-thiazolo[3,2-a]pyrimidine-3-carboxamide]: 11.2 µM; `CNC(=O)c1c(C(F)(F)F)sc2nc(Cc3cccc(C#N)c3F)cc(=O)n12` [compound 70, 7-[(3-cyano-2-fluoro-phenyl)methyl]-N-methyl-5-oxo-2-(trifluoromethyl)thiazolo[3,2-a]pyrimidine-3-carboxamide]: 2.92 µM. In the case of `CCNC(=O)Cc1c(C)sc2nc(Cc3cccc(C(F)(F)F)c3F)cc(=O)n12` [compound 71, N-ethyl-2-[7-[[2-fluoro-3-(trifluoromethyl)phenyl]methyl]-2-methyl-5-oxo-thiazolo[3,2-a]pyrimidin-3-yl]acetamide] it was 1.37 µM; in that of `CNC(=O)c1c(C)sc2nc(Cn3cc(C(F)(F)F)cn3)cc(=O)n12` [compound 72, N,2-dimethyl-5-oxo-7-[[4-(trifluoromethyl)pyrazol-1-yl]methyl]thiazolo[3,2-a]pyrimidine-3-carboxamide], 62.6 µM; in that of `Cc1sc2nc(Oc3cccc(C(F)(F)F)c3F)cc(=O)n2c1C1CC1` [compound 73, 3-cyclopropyl-7-[2-fluoro-3-(trifluoromethyl)phenoxy]-2-methyl-thiazolo[3,2-a]pyrimidin-5-one], 40.1 µM. In the case of `N#Cc1cccc(Cc2cc(=O)n3c(C4CC4C(F)(F)F)c(Cl)sc3n2)c1F` (centres unmarked) [compound 74, 3-[[2-chloro-5-oxo-3-[2-(trifluoromethyl)cyclopropyl]thiazolo[3,2-a]pyrimidin-7-yl]methyl]-2-fluoro-benzonitrile] it was 0.507 µM; in that of `CNC(=O)Cc1c(C(F)(F)F)sc2nc(Cc3cccc(C(F)(F)F)c3F)cc(=O)n12` [compound 75, 2-[7-[[2-fluoro-3-(trifluoromethyl)phenyl]methyl]-5-oxo-2-(trifluoromethyl)thiazolo[3,2-a]pyrimidin-3-yl]-N-methyl-acetamide], 28.9 µM; in that of `CCNC(=O)c1c(C)sc2nc(Cn3nc(C(F)(F)F)cc3C3CC3)cc(=O)n12` [compound 76, 7-[[5-cyclopropyl-3-(trifluoromethyl)pyrazol-1-yl]methyl]-N-ethyl-2-methyl-5-oxo-thiazolo[3,2-a]pyrimidine-3-carboxamide], 0.436 µM. With `Cc1sc2nc(Oc3cccc(C#N)c3F)cc(=O)n2c1C1CC1C(F)(F)F` (centres unmarked) [compound 77, 2-fluoro-3-[2-methyl-5-oxo-3-[2-(trifluoromethyl)cyclopropyl]thiazolo[3,2-a]pyrimidin-7-yl]oxy-benzonitrile], the EC50 was determined as 0.271 µM.

With `CNC(=O)Cc1c(C(F)(F)F)sc2nc(Cn3nc(C(F)(F)F)cc3C3CC3)cc(=O)n12` [compound 78, 2-[7-[[5-cyclopropyl-3-(trifluoromethyl)pyrazol-1-yl]methyl]-5-oxo-2-(trifluoromethyl)thiazolo[3,2-a]pyrimidin-3-yl]-N-methyl-acetamide], the EC50 came to 2.96 µM. In the case of `CNC(=O)Cc1c(C(F)(F)F)sc2nc(Cn3nc(C4CC4)cc3C(F)(F)F)cc(=O)n12` [compound 79, 2-[7-[[3-cyclopropyl-5-(trifluoromethyl)pyrazol-1-yl]methyl]-5-oxo-2-(trifluoromethyl)thiazolo[3,2-a]pyrimidin-3-yl]-N-methyl-acetamide] it was 14.3 µM; in that of `Cc1sc2nc(Cc3cccc(C(F)(F)F)c3F)cc(=O)n2c1Cc1ncc[nH]1` [compound 81, 7-[[2-fluoro-3-(trifluoromethyl)phenyl]methyl]-3-(1H-imidazol-2-ylmethyl)-2-methyl-thiazolo[3,2-a]pyrimidin-5-one], 52 µM. In the case of `CCNC(=O)c1c(C)sc2nc(CN(CC)c3ccc(F)cc3)cc(=O)n12` [compound 82, N-ethyl-7-[(N-ethyl-4-fluoro-anilino)methyl]-2-methyl-5-oxo-thiazolo[3,2-a]pyrimidine-3-carboxamide] it was 0.0787 µM; in that of `CCNC(=O)c1c(C(F)(F)F)sc2nc(CN(CC)c3ccc(F)cc3)cc(=O)n12` [compound 83, N-ethyl-7-[(N-ethyl-4-fluoro-anilino)methyl]-5-oxo-2-(trifluoromethyl)thiazolo[3,2-a]pyrimidine-3-carboxamide], 0.154 µM; in that of `CC1CC1c1c(C(F)(F)F)sc2nc(Cc3cccc(C#N)c3F)cc(=O)n12` (centres unmarked) [compound 84, 2-fluoro-3-[[3-(2-methylcyclopropyl)-5-oxo-2-(trifluoromethyl)thiazolo[3,2-a]pyrimidin-7-yl]methyl]benzonitrile], 11.2 µM.

For `CC1CC1c1c(Cl)sc2nc(Cc3cccc(C#N)c3F)cc(=O)n12` (centres unmarked) [compound 85, 3-[[2-chloro-3-(2-methylcyclopropyl)-5-oxo-thiazolo[3,2-a]pyrimidin-7-yl]methyl]-2-fluoro-benzonitrile], the EC50 was 2.39 µM.

As to `Cc1sc2nc(Oc3cccc(C(F)(F)F)c3F)cc(=O)n2c1C1CC1C` (centres unmarked) [compound 86, 7-[2-fluoro-3-(trifluoromethyl)phenoxy]-2-methyl-3-(2-methylcyclopropyl)thiazolo[3,2-a]pyrimidin-5-one], the EC50 was determined as 10.5 µM. For `CCNC(=O)c1c(C(C)C)sc2nc(Cc3cccc(C(F)(F)F)c3F)cc(=O)n12` [compound 87, N-ethyl-7-[[2-fluoro-3-(trifluoromethyl)phenyl]methyl]-2-isopropyl-5-oxo-thiazolo[3,2-a]pyrimidine-3-carboxamide], the EC50 was 42 µM. Regarding `N#Cc1cccc(Cc2cc(=O)n3c(C4CC4C(F)(F)F)c(C(F)(F)F)sc3n2)c1F` (centres unmarked) [compound 88, 2-fluoro-3-[[5-oxo-2-(trifluoromethyl)-3-[2-(trifluoromethyl)cyclopropyl]thiazolo[3,2-a]pyrimidin-7-yl]methyl]benzonitrile], the EC50 came out at 3.7 µM. Turning to `O=c1cc(Cn2nc(C(F)(F)F)cc2Cl)nc2sc3c(n12)CCC3` [compound 89], the EC50 was determined as 9.04 µM.

Regarding `O=c1cc(Cn2nc(Cl)cc2C(F)(F)F)nc2sc3c(n12)CCC3` [compound 90], the EC50 was 1.22 µM.
